The record followed here is US11638427B2, “Methods and compositions for altering secondary metabolites in plants” (Impello Biosciences, Inc, priority 2020, dated 2023).

Each structure is given as a SMILES string.

The subject of experiment [1] is hemp varietal 'Bialobreszkie'. Kind of experiment: MeJA foliar spray on fiber hemp, non-targeted metabolomic analysis (UPLC-MS, GC-MS). Format: in vivo, Cannabis spp. As for the experimental part:
The efficacy and effectiveness of an eliciting composition and methods of use to alter secondary metabolite production were tested in a controlled environment with a commercial certified hemp varietal ‘Bialobreszkie’ (Bija Hemp, Denver, Colo., USA). […] This is in comparison with high metabolite-producing hemp varieties that typically yield greater than 10% by weight total cannabinoids.
A non-targeted semi-quantitative metabolomic analysis was conducted to provide relative values for each detected analyte (i.e., compound) rather than absolute quantification, but with much greater detection limits than typical quantitative analysis provides. Additionally, the non-targeted nature allows essentially every compound that is present in the sample to be recorded and scored relative, providing a picture of the effect that each treatment has on the entire metabolome of the plant rather than only a snapshot of a few metabolites.
One hundred and forty-four (144) ‘Bialobreszkie’ variety hemp seeds were surface sterilized in a 2% NaOCI solution for 5 minutes and primed for 12 hours in a 1:30 aqueous solution of TRIBUS® Original (a commercial plant growth promoting bacterial consortia) contained in a 50 mL centrifuge tube and placed on an orbital shaker at 80 rpm, then hand sewn into two 72-cell trays filled with commercial coco coir (Canna Gardening, NL). Of the 144 seeds, 112 germinated well and were selected for use in the trial. After two weeks of development in seedling trays, all 112 plants were transplanted into 4” square plastic pots filled with pure coco coir media and watered-in with a 4-20-39 fertilizer supplemented with calcium nitrate, magnesium sulfate, and TRIBUS® beneficial bacteria at a standardized rate. At the time of transplant, all plants were transitioned into the flowering stage by manipulating the photoperiod to a 12-hour light/12-hour dark schedule per 24-hour day.
Plants were transplanted successively without regard to their size or physical attributes on Apr. 20, 2019. The square pots were arranged in an […] grid on a 4′×8′ black plastic bench under two×1000-watt DE-HPS lamps (Gavita International BV). Each pot was numbered in numerical order, row by row. After all plants/pots were labelled, a research randomizer tool (randomizer.org) was used to randomly generate 8 groups with 14 unique numbers in each group, ranging from 1-112.
Treatment groups differed only in the frequency and timing of applications. Chemical composition of the elicitor formula remained identical between all treatment groups and consisted of a 7.5 mM methyljasmonate (MeJA, technical grade, TCI America) active ingredient applied in an aqueous spray consisting of reverse-osmosis purified water, supplemented only with 0.1% v/v polysorbate-20 (TWEEN®-20, reagent grade, VWR) as an emulsifier to support oil-in-water stability. […] Treatment groups were defined as follows: […]
All plants receiving treatments were sprayed-to-drip with each application to ensure sufficient coverage. Treatments were made to all treatment plants during daylight hours but out of direct light. Plants were temporarily removed from the growing bench for treatment applications in order to prevent overspray of the treatment onto other plants in the experiment. In such instances, plants were returned to the growing bench immediately after the foliage had dried. Plants were cultivated under identical and typical growing conditions for 47 days, then whole plants were harvested successively and within one hour of each other, labeled with their corresponding plant number, and hung upside down in a well-ventilated room and allowed to dry. Loss of samples occurred either from plants dying during the experiment or insufficient flower set. All other plants in the experiment were approximately the same size and had similar numbers and size of flowers.
Each of the 8 groups (7 treatment and 1 control) began the trial with 14 plants. 109 of 112 samples were run in the assay. […]

In the next experiment the test system is hemp plants Cv. Zephyr. Kind of experiment: Weekly MDJ foliar spray at four concentrations, cannabinoids and terpenes. Format: in vivo, Cannabis spp. The method, then:
To investigate the effect of different concentrations of MDJ, four different concentrations of MDJ was applied to hemp plants (n=5 per treatment, Cv.: Zephyr, CBDRx) weekly via foliar spray at the following concentrations: 1 mM, 4.25 mM, 7.5 mM, 10 mM. Treatment concentrations were prepared as described above and one drop of TWEEN®-20 (VWR, CAS No.: 9005-64-5) was added to treatments to serve as a surfactant. Treatments were applied weekly during both the vegetative (2 treatments) and flowering (6 treatments) developmental stages using a SPRAYMASTER Chemical Sprayer (King of Prussia, Pa.) (8 treatments total). Plants were grown under a total of 12 Boost (Thrive Agritech, NY) 130-watt LED lights set to 18L: 6D photoperiod during the vegetative phase (2 weeks) followed by a 12L: 12D photoperiod during the flowering phase (6 weeks), using the same lighting. Untreated controls served as a comparison to see alterations in metabolite synthesis.

In experiment [2] the test system is Colletotrichum gloeosporioides. As to the kind of experiment: Mold growth on jasmonate-infused plates, mold 1 isolated from avocado. Format: cell-based. The note with it: various concentrations in plates. The method, then: (§1) MDJ (TCI, CAS No.: 24851-98-7) and CJ were infused into potato dextrose agar (PDA, VWR Cat No.: 90003-494) petri dishes (100×15 mm VWR, Cat No: 25384-094) at concentrations ranging from 1 mM, 4.25 mM, and 10 mM. Each treatment was prepared using a technical grade stock solution of pure chemical (CJ or MDJ) diluted with TWEEN®-20 (VWR, CAS No.: […]). Culturable oyster mushroom and seedling mold served to create fungal mycelial plugs using a sterile 1 mL pipette tip (Eppendorf, Cat No.: 022491458) held upside down. The tips were used to make circle excisions (i.e., fungal plugs) from a mycelial mat grown on PDA with no biochemical infusions. Fungal pugs were then transferred to PDA infused with varying concentrations of CJ or MDJ, and control plates (no CJ or MDJ infusion) to monitor fungal growth at room temperature over time.
(§2) Based on the above results in Cannabis spp., additional fungi from various crops was sampled and tested. Plates comprising various concentrations of MDJ or MJ were prepared as described above.

The test system of a further experiment is Botrytis spp. Kind of experiment: Mold growth on jasmonate-infused plates, mold isolated from strawberry. Format: cell-based. The note with it: 1 mM, 5 mM, 10 mM, or 20 mM in plates. As for the experimental part:
as §1, §2

The next experiment has as its system Penicillium spp. As to the kind of experiment: Mold growth on jasmonate-infused plates, mold isolated from pineapple. Format: cell-based. Particulars: 5 mM, 10 mM, or 20 mM in plates. The method, then: as §1, §2
The subject of another experiment is Nectria pseudotrichia. As to the kind of experiment: Mold growth on jasmonate-infused plates, mold 2 isolated from avocado. Format: cell-based. Particulars: various concentrations in plates. The method, then: as §1, §2
Setting [3] is: 7.5 mM foliar spray, of the 597.
The mark [4] stands for this setting: all tested concentrations (1, 4.25, 7.5, 10 mM) weekly foliar spray vs untreated controls.

`CC/C=C\C[C@H]1C(=O)CC[C@@H]1CC(=O)OC` [MeJA, Methyl Jasmonate]: the “non-volatile hemp metabolome compared to the Control group (UPLC-MS)” value in experiment [1] (7.5 mM applied every 7, 14 or 28 days, or only once 72 hours prior to harvest) is listed as “substantially altered”. For the same compound, the “endogenous levels of jasmonate derivatives” value in experiment [1] (7.5 mM exogenous foliar application) was “increase endogenous levels of numerous jasmonate derivaties”. Besides, in experiment [1] (setting [3]), the “significantly altered compounds not annotated” value is 466; the “significantly altered compounds putatively of superclass Alkaloids and derivatives” value worked out at 5; the “significantly altered compounds putatively of superclass Benzenoids” value was determined as 5; the “significantly altered compounds putatively of superclass Lipid or Lipid like” value amounted to 78. For the same compound, in experiment [1] (setting [3]), the “significantly altered compounds putatively of superclass Organic acids and derivatives” value turned out to be 1; the “significantly altered compounds putatively of superclass Organic nitrogen compounds” value is reported as 1; the “significantly altered compounds putatively of superclass Organic oxygen compounds” value is recorded as 9; the “significantly altered compounds putatively of superclass Organoheterocyclic compounds” value worked out at 10. Also, the “significantly altered compounds putatively of superclass Phenylpropanoids and polyketides” value in experiment [1] (setting [3]) is 14. Also, the “non-volatile compounds significantly (p<0.05) altered by one or more treatment groups” value in experiment [1] (7.5 mM foliar spray, of the 2,000+ compounds detected via UPLC-TOF) is recorded as 597. Further, the “analytes with significantly altered relative abundance compared to the control group” value in experiment [1] (Treatment 1: 7.5 mM, one application every 7 days from first day of flowering) came out at 551. Further, in experiment [1] (Treatment 2: 7.5 mM, one application every 14 days from first day of flowering), the “analytes with significantly altered relative abundance compared to the control group” value is given as 497. In addition, the “analytes with significantly altered relative abundance compared to the control group” value in experiment [1] (Treatment 3: 7.5 mM, one application every 28 days from first day of flowering) is 41. For the same compound, the “analytes with significantly altered relative abundance compared to the control group” value in experiment [1] (Treatment 4: 7.5 mM, only one application on the first day of flowering) is “did not significantly altered the relative abundance of any analytes”. In addition, the “analytes with significantly altered relative abundance compared to the control group” value in experiment [1] (Treatment 5: 7.5 mM, only one application on the 30th day of flowering) was 4. The “analytes with significantly altered relative abundance compared to the control group” value in experiment [1] (Treatment 6: 7.5 mM, only one application 72 hours prior to harvest) worked out at 399. Further, the “analytes with significantly altered relative abundance compared to the control group” value in experiment [1] (Treatment 7: 7.5 mM, only one application 24 hours prior to harvest) worked out at 216.

For the compound `CCCCCC1C(=O)CCC1CC(=O)OC` (stereo not shown) [MDJ, methyl dihydrojasmonate], in the experiment with hemp plants Cv. Zephyr (setting [4]), the CBDA result is “significantly increased”, the CBGA entry is “significantly increased”, the THCA entry is “significantly increased” and the “Total CBD” value is listed as “significantly increased”. Further, in the experiment with hemp plants Cv. Zephyr (setting [4]), the “Total CBG” value is on record as “significantly increased” and the Total cannabinoids entry is recorded as “significantly increased”. For the same compound, in the experiment on hemp plants Cv. Zephyr (weekly foliar spray 1-10 mM), the several terpenes entry is reported as “altered”. Moreover, in the experiment on hemp plants Cv. Zephyr (weekly foliar spray, CBL not detected at all in the control samples), the CBL entry is “detectable levels”. Moreover, the “growth of mold isolated from avocado (mold 1)” value in experiment [2] was “effective at preventing the growth”. Moreover, the “growth of mold isolated from strawberry” value with Botrytis spp. is “effective at preventing the growth”. Also, the “growth of mold isolated from pineapple” value in the experiment with Penicillium spp. is reported as “effective at preventing the growth”. Also, the “growth of mold isolated from avocado (mold 2)” value in the experiment on Nectria pseudotrichia is “effective at preventing the growth”.
